Square brackets hold non-standard residues; d marks the D form. Peptide text beside a SMILES is read from it. dGly(5-dibenzosuberyl) = N[C@@H](C(=O)O)C1c2ccccc2CCc2ccccc21
These molecules were tested against T1, Endothelin-1 receptor (Sus scrofa) (UniProt Q29010) (assay: Inhibition of endothelin (ET-A) binding to porcine heart membranes). Conditions: Membrane, concentration not given here.
T1 sequence (whole entry): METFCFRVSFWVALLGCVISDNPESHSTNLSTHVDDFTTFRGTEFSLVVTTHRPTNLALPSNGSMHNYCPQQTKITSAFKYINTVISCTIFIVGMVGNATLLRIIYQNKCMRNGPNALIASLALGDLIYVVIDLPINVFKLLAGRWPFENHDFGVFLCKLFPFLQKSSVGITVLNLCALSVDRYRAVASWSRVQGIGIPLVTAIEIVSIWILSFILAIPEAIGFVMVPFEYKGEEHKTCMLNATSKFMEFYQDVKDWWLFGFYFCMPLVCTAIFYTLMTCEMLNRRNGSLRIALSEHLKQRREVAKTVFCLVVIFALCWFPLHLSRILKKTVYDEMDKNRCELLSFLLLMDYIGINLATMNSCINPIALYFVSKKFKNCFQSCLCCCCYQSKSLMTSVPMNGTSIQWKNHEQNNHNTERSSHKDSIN
Design: concentration or dose not given beside the values

**Q.** `CC[C@H](C)[C@H](NC(=O)[C@H](Cc1c[nH]cn1)NC(=O)[C@H](CC(=O)O)NC(=O)[C@H](CC(C)C)NC(=O)[C@H](NC(C)=O)C1c2ccccc2CCc2ccccc21)C(=O)N[C@@H](Cc1c[nH]c2ccccc12)C(=O)O` was tested. Which inhibition did it give?
**A.** The inhibition was 12%.

**Q.** Which inhibition does the source give for `CC[C@H](C)[C@H](NC(=O)[C@H](CCC(N)=O)NC(=O)[C@H](CC(=O)O)NC(=O)[C@H](CC(C)C)NC(=O)[C@H](NC(C)=O)C1c2ccccc2CCc2ccccc21)C(=O)N[C@@H](Cc1c[nH]c2ccccc12)C(=O)O` here?
**A.** The inhibition was 12%.

**Q.** With `CC[C@H](C)[C@H](NC(=O)[C@H](Cc1ccccc1)NC(=O)[C@H](CC(=O)O)NC(=O)[C@H](CC(C)C)NC(=O)[C@H](NC(C)=O)C1c2ccccc2CCc2ccccc21)C(=O)N[C@@H](Cc1c[nH]c2ccccc12)C(=O)O` (Ac-[dGly(5-dibenzosuberyl)]LDFIW-OH) as the molecule, how does the inhibition read?
**A.** Its inhibition is 12%.

**Q.** For `CC[C@H](C)[C@H](NC(=O)[C@@H]1CCCN1C(=O)[C@H](CC(=O)O)NC(=O)[C@H](CC(C)C)NC(=O)[C@H](NC(C)=O)C1c2ccccc2CCc2ccccc21)C(=O)N[C@@H](Cc1c[nH]c2ccccc12)C(=O)O`, which inhibition is on record?
**A.** Its inhibition is 0%.

**Q.** With `CC[C@H](C)[C@H](NC(=O)[C@H](CCC(=O)O)NC(=O)[C@H](CC(=O)O)NC(=O)[C@H](CC(C)C)NC(=O)[C@H](NC(C)=O)C1c2ccccc2CCc2ccccc21)C(=O)N[C@@H](Cc1c[nH]c2ccccc12)C(=O)O` as the molecule, how does the inhibition read?
**A.** The inhibition was 0%.

These molecules were tested against T2, Endothelin-1 receptor (Sus scrofa, UniProt Q29010) (assay: Antagonist activity against ET-A from porcine heart membranes). Conditions: not given.
T2 sequence (Q29010 whole entry): T1 sequence (whole entry)
Type: functional, tissue-based

**Q.** With `CC[C@H](C)[C@H](NC(=O)[C@H](CC(=O)O)NC(=O)[C@H](Cc1c[nH]cn1)NC(=O)[C@H](NC(C)=O)C1c2ccccc2CCc2ccccc21)C(=O)N[C@H](C(=O)N[C@@H](Cc1c[nH]c2ccccc12)C(=O)O)[C@@H](C)CC` as the molecule, how does the IC50 read?
**A.** Its IC50 is 50 nM.

**Q.** `CC[C@H](C)[C@H](NC(=O)[C@H](CC(=O)O)NC(=O)[C@H](CO)NC(=O)[C@H](NC(C)=O)C1c2ccccc2CCc2ccccc21)C(=O)N[C@H](C(=O)N[C@@H](Cc1c[nH]c2ccccc12)C(=O)O)[C@@H](C)CC` was tested. Which IC50 did it give?
**A.** Its IC50 is 6 nM.

**Q.** For `CC[C@H](C)[C@H](NC(=O)[C@H](CC(=O)O)NC(=O)[C@H](CCC(N)=O)NC(=O)[C@H](NC(C)=O)C1c2ccccc2CCc2ccccc21)C(=O)N[C@H](C(=O)N[C@@H](Cc1c[nH]c2ccccc12)C(=O)O)[C@@H](C)CC`, which IC50 is on record?
**A.** Its IC50 is 2 nM.

**Q.** With `CC[C@H](C)[C@H](NC(=O)[C@H](CC(=O)O)NC(=O)[C@@H](NC(=O)[C@H](NC(C)=O)C1c2ccccc2CCc2ccccc21)[C@@H](C)O)C(=O)N[C@H](C(=O)N[C@@H](Cc1c[nH]c2ccccc12)C(=O)O)[C@@H](C)CC` as the molecule, how does the IC50 read?
**A.** Its IC50 is 4 nM.

**Q.** `CC[C@H](C)[C@H](NC(=O)[C@@H](NC(=O)[C@H](CC(=O)O)NC(=O)[C@H](CCC(N)=O)NC(=O)[C@H](NC(C)=O)C1c2ccccc2CCc2ccccc21)C(C)(C)C)C(=O)N[C@@H](Cc1c[nH]c2ccccc12)C(=O)O` was tested. Which IC50 did it give?
**A.** The IC50 was 5 nM.

**Q.** How did the IC50 turn out when `CC[C@H](C)[C@H](NC(=O)[C@H](CC(=O)O)NC(=O)[C@@H](NC(=O)[C@H](NC(C)=O)C1c2ccccc2CCc2ccccc21)C(C)C)C(=O)N[C@H](C(=O)N[C@@H](Cc1c[nH]c2ccccc12)C(=O)O)[C@@H](C)CC` was run?
**A.** Its IC50 is 12 nM.

**Q.** With `CC[C@H](C)[C@H](NC(=O)[C@H](CC(=O)O)NC(=O)[C@H](Cc1ccccc1)NC(=O)[C@H](NC(C)=O)C1c2ccccc2CCc2ccccc21)C(=O)N[C@H](C(=O)N[C@@H](Cc1c[nH]c2ccccc12)C(=O)O)[C@@H](C)CC` as the molecule, how does the IC50 read?
**A.** Its IC50 is 24 nM.

**Q.** For `CC[C@H](C)[C@H](NC(=O)[C@H](CC(=O)O)NC(=O)[C@H](CC(N)=O)NC(=O)[C@H](NC(C)=O)C1c2ccccc2CCc2ccccc21)C(=O)N[C@H](C(=O)N[C@@H](Cc1c[nH]c2ccccc12)C(=O)O)[C@@H](C)CC`, which IC50 is on record?
**A.** The IC50 was 3 nM.

**Q.** How did the IC50 turn out when `CC[C@H](C)[C@H](NC(=O)[C@H](CC(=O)O)NC(=O)[C@H](CCCN=C(N)N)NC(=O)[C@H](NC(C)=O)C1c2ccccc2CCc2ccccc21)C(=O)N[C@H](C(=O)N[C@@H](Cc1c[nH]c2ccccc12)C(=O)O)[C@@H](C)CC` (Ac-[dGly(5-dibenzosuberyl)]RDIIW-OH) was run?
**A.** Its IC50 is 3 nM.

**Q.** Which IC50 does the source give for `CC[C@H](C)[C@H](NC(=O)[C@@H](NC(=O)[C@H](CC(=O)O)NC(=O)[C@H](CCC(N)=O)NC(=O)[C@H](NC(C)=O)C1c2ccccc2CCc2ccccc21)C(C)C)C(=O)N[C@@H](Cc1c[nH]c2ccccc12)C(=O)O` here?
**A.** The IC50 was 1.7 nM.

**Q.** With `CC[C@H](C)[C@H](NC(=O)[C@H](CC(=O)O)NC(=O)[C@H](C)NC(=O)[C@H](NC(C)=O)C1c2ccccc2CCc2ccccc21)C(=O)N[C@H](C(=O)N[C@@H](Cc1c[nH]c2ccccc12)C(=O)O)[C@@H](C)CC` as the molecule, how does the IC50 read?
**A.** The IC50 was 6 nM.

**Q.** For `CC[C@H](C)[C@H](NC(=O)[C@@H](NC(=O)[C@H](CC(=O)O)NC(=O)[C@H](CC(C)C)NC(=O)[C@H](NC(C)=O)C1c2ccccc2CCc2ccccc21)C(C)(C)C)C(=O)N[C@@H](Cc1c[nH]c2ccccc12)C(=O)O`, which IC50 is on record?
**A.** Its IC50 is 5 nM.

**Q.** With `CC[C@H](C)[C@H](NC(=O)[C@H](CC(=O)O)NC(=O)CNC(=O)[C@H](NC(C)=O)C1c2ccccc2CCc2ccccc21)C(=O)N[C@H](C(=O)N[C@@H](Cc1c[nH]c2ccccc12)C(=O)O)[C@@H](C)CC` as the molecule, how does the IC50 read?
**A.** Its IC50 is 19 nM.

**Q.** For `CC[C@H](C)[C@H](NC(=O)[C@@H](NC(=O)[C@H](CC(=O)O)NC(=O)[C@H](CC(N)=O)NC(=O)[C@H](NC(C)=O)C1c2ccccc2CCc2ccccc21)C(C)C)C(=O)N[C@@H](Cc1c[nH]c2ccccc12)C(=O)O`, which IC50 is on record?
**A.** Its IC50 is 4 nM.

**Q.** With `CC[C@H](C)[C@H](NC(=O)[C@H](CC(=O)O)NC(=O)[C@H](Cc1ccc(O)cc1)NC(=O)[C@H](NC(C)=O)C1c2ccccc2CCc2ccccc21)C(=O)N[C@H](C(=O)N[C@@H](Cc1c[nH]c2ccccc12)C(=O)O)[C@@H](C)CC` as the molecule, how does the IC50 read?
**A.** The IC50 was 11 nM.

**Q.** With `CC[C@H](C)[C@H](NC(=O)[C@H](CC(=O)O)NC(=O)[C@H](CCCCN)NC(=O)[C@H](NC(C)=O)C1c2ccccc2CCc2ccccc21)C(=O)N[C@H](C(=O)N[C@@H](Cc1c[nH]c2ccccc12)C(=O)O)[C@@H](C)CC` as the molecule, how does the IC50 read?
**A.** Its IC50 is 4 nM.

**Q.** `CC[C@H](C)[C@H](NC(=O)[C@H](CC(=O)O)NC(=O)[C@@H](NC(=O)[C@H](NC(C)=O)C1c2ccccc2CCc2ccccc21)[C@@H](C)CC)C(=O)N[C@H](C(=O)N[C@@H](Cc1c[nH]c2ccccc12)C(=O)O)[C@@H](C)CC` was tested. Which IC50 did it give?
**A.** The IC50 was 21 nM.

**Q.** `CC[C@H](C)[C@H](NC(=O)[C@H](CC(=O)O)NC(=O)[C@H](Cc1c[nH]c2ccccc12)NC(=O)[C@H](NC(C)=O)C1c2ccccc2CCc2ccccc21)C(=O)N[C@H](C(=O)N[C@@H](Cc1c[nH]c2ccccc12)C(=O)O)[C@@H](C)CC` was tested. Which IC50 did it give?
**A.** Its IC50 is 11 nM.

**Q.** With `CC[C@H](C)[C@H](NC(=O)[C@H](CC(=O)O)NC(=O)[C@H](CCSC)NC(=O)[C@H](NC(C)=O)C1c2ccccc2CCc2ccccc21)C(=O)N[C@H](C(=O)N[C@@H](Cc1c[nH]c2ccccc12)C(=O)O)[C@@H](C)CC` as the molecule, how does the IC50 read?
**A.** The IC50 was 8 nM.

**Q.** For `CC[C@H](C)[C@H](NC(=O)[C@H](CC(=O)O)NC(=O)[C@@H]1CCCN1C(=O)[C@H](NC(C)=O)C1c2ccccc2CCc2ccccc21)C(=O)N[C@H](C(=O)N[C@@H](Cc1c[nH]c2ccccc12)C(=O)O)[C@@H](C)CC`, which IC50 is on record?
**A.** Its IC50 is 6 nM.

**Q.** For `CC[C@H](C)[C@H](NC(=O)[C@H](CC(=O)O)NC(=O)[C@H](CC(=O)O)NC(=O)[C@H](NC(C)=O)C1c2ccccc2CCc2ccccc21)C(=O)N[C@H](C(=O)N[C@@H](Cc1c[nH]c2ccccc12)C(=O)O)[C@@H](C)CC`, which IC50 is on record?
**A.** The IC50 was 11 nM.

**Q.** With `CC[C@H](C)[C@H](NC(=O)[C@H](CC(=O)O)NC(=O)[C@H](CCC(=O)O)NC(=O)[C@H](NC(C)=O)C1c2ccccc2CCc2ccccc21)C(=O)N[C@H](C(=O)N[C@@H](Cc1c[nH]c2ccccc12)C(=O)O)[C@@H](C)CC` (Ac-[dGly(5-dibenzosuberyl)]EDIIW-OH) as the molecule, how does the IC50 read?
**A.** Its IC50 is 11 nM.
